Data reported in patent US10770169B2, “Method of providing a treatment to a subject based on a dynamic pathway map” (THE REGENTS OF THE UNIVERSITY OF CALIFORNIA, priority 2010, dated 2020).

Test system: panel of 55 breast cancer cell lines
Experiment: Cell growth inhibition assay (Cell Titer Glo, 72 h, 9 doses; GI50, TGI, LC50)
Type: cell-based, human

Oc1cc(-c2nc(-c3ccccc3)[nH]c2-c2ccncc2)ccc1Cl [L-779450]
GI50 (BT474 cell line, censored GI50 values, value is the negative log10 of mol/L): 4.73 | GI50 (BT483 cell line, censored GI50 values, value is the negative log10 of mol/L): 4.84 | GI50 (HCC38 cell line, censored GI50 values, value is the negative log10 of mol/L): 4.77 | GI50 (HCC1187 cell line, censored GI50 values, value is the negative log10 of mol/L): 5.07 | GI50 (HCC1395 cell line, censored GI50 values, value is the negative log10 of mol/L): 4.54 | GI50 (HCC1419 cell line, censored GI50 values, value is the negative log10 of mol/L): 4.78 | GI50 (HCC1428 cell line, censored GI50 values, value is the negative log10 of mol/L): 4.80 | GI50 (HCC1937 cell line, censored GI50 values, value is the negative log10 of mol/L): 4.84 | GI50 (MDAMB134VI cell line, censored GI50 values, value is the negative log10 of mol/L): 4.60 | GI50 (MDAMB175VII cell line, censored GI50 values, value is the negative log10 of mol/L): 5.05 | GI50 (MDAMB361 cell line, censored GI50 values, value is the negative log10 of mol/L): 5.04 | GI50 (MDAMB436 cell line, censored GI50 values, value is the negative log10 of mol/L): 5.66 | GI50 (MDAMB468 cell line, censored GI50 values, value is the negative log10 of mol/L): 4.90 | GI50 (SKBR3 cell line, censored GI50 values, value is the negative log10 of mol/L): 4.66 | GI50 (SUM52PE cell line, censored GI50 values, value is the negative log10 of mol/L): 5.13 | GI50 (SUM149PT cell line, censored GI50 values, value is the negative log10 of mol/L): 5.13 | GI50 (SUM159PT cell line, censored GI50 values, value is the negative log10 of mol/L): 4.70 | GI50 (UACC812 cell line, censored GI50 values, value is the negative log10 of mol/L): 4.97 | GI50 (ZR75B cell line, censored GI50 values, value is the negative log10 of mol/L): 4.51 | GI50 (cell line AU565, value is the negative log10 of mol/L): 4.48 | GI50 (cell line BT20, value is the negative log10 of mol/L): 4.44 | GI50 (cell line BT474, value is the negative log10 of mol/L): 4.73 | GI50 (cell line BT483, value is the negative log10 of mol/L): 4.84 | GI50 (cell line CAMA1, value is the negative log10 of mol/L): 4.44 | GI50 (cell line HCC38, value is the negative log10 of mol/L): 4.77 | GI50 (cell line HCC70, value is the negative log10 of mol/L): 4.50 | GI50 (cell line HCC1143, value is the negative log10 of mol/L): 4.39 | GI50 (cell line HCC1187, value is the negative log10 of mol/L): 5.07 | GI50 (cell line HCC1395, value is the negative log10 of mol/L): 4.54 | GI50 (cell line HCC1419, value is the negative log10 of mol/L): 4.78 | GI50 (cell line HCC1428, value is the negative log10 of mol/L): 4.80 | GI50 (cell line HCC1500, value is the negative log10 of mol/L): 4.48 | GI50 (cell line HCC1937, value is the negative log10 of mol/L): 4.84 | GI50 (cell line HCC1954, value is the negative log10 of mol/L): 4.48 | GI50 (cell line HCC2185, value is the negative log10 of mol/L): 4.42 | GI50 (cell line HCC3153, value is the negative log10 of mol/L): 4.48 | GI50 (cell line MCF7, value is the negative log10 of mol/L): 4.48 | GI50 (cell line MDAMB134V, value is the negative log10 of mol/L): 4.60 | GI50 (cell line MDAMB175V, value is the negative log10 of mol/L): 5.05 | GI50 (cell line MDAMB231, value is the negative log10 of mol/L): 4.49 | GI50 (cell line MDAMB361, value is the negative log10 of mol/L): 5.04 | GI50 (cell line MDAMB436, value is the negative log10 of mol/L): 5.66 | GI50 (cell line MDAMB453, value is the negative log10 of mol/L): 4.48 | GI50 (cell line MDAMB468, value is the negative log10 of mol/L): 4.90 | GI50 (cell line SKBR3, value is the negative log10 of mol/L): 4.66 | GI50 (cell line SUM52PE, value is the negative log10 of mol/L): 5.13 | GI50 (cell line SUM149PT, value is the negative log10 of mol/L): 5.13 | GI50 (cell line SUM159PT, value is the negative log10 of mol/L): 4.70 | GI50 (cell line SUM1315MO, value is the negative log10 of mol/L): 4.62 | GI50 (cell line T47D, value is the negative log10 of mol/L): 4.48 | GI50 (cell line UACC812, value is the negative log10 of mol/L): 4.97 | GI50 (cell line ZR75B, value is the negative log10 of mol/L): 4.51 | GI50 (cell line ZR751, value is the negative log10 of mol/L): 4.53

C[C@]12O[C@H](C[C@]1(O)CO)n1c3ccccc3c3c4c(c5c6ccccc6n2c5c31)CNC4=O [Lestaurtinib]
GI50 (Homo sapiens, 600MPE cell line, censored GI50 values): 1700 nM | GI50 (Homo sapiens, AU565, AU565 cell line, censored GI50 values): 851 nM | GI50 (Homo sapiens, AU565, cell line AU565): 851 nM | GI50 (Homo sapiens, BT-20, BT20 cell line, censored GI50 values): 3240 nM | GI50 (Homo sapiens, BT-20, cell line BT20): 3240 nM | GI50 (Homo sapiens, BT-474, BT474 cell line, censored GI50 values): 245 nM | GI50 (Homo sapiens, BT-474, cell line BT474): 245 nM | GI50 (Homo sapiens, BT-483, BT483 cell line, censored GI50 values): 741 nM | GI50 (Homo sapiens, BT-483, cell line BT483): 741 nM | GI50 (Homo sapiens, CAMA-1, CAMA1 cell line, censored GI50 values): 2240 nM | GI50 (Homo sapiens, CAMA-1, cell line CAMA1): 2240 nM | GI50 (Homo sapiens, HCC38, cell line HCC38): 61.7 nM | GI50 (Homo sapiens, HCC70, cell line HCC70): 182 nM | GI50 (Homo sapiens, HCC1143, HCC1143 cell line, censored GI50 values): 331 nM | GI50 (Homo sapiens, HCC1143, cell line HCC1143): 331 nM | GI50 (Homo sapiens, HCC1187, HCC1187 cell line, censored GI50 values): 832 nM | GI50 (Homo sapiens, HCC1187, cell line HCC1187): 832 nM | GI50 (Homo sapiens, HCC1419, HCC1419 cell line, censored GI50 values): 1150 nM | GI50 (Homo sapiens, HCC1419, cell line HCC1419): 1150 nM | GI50 (Homo sapiens, HCC1428, HCC1428 cell line, censored GI50 values): 537 nM | GI50 (Homo sapiens, HCC1428, cell line HCC1428): 537 nM | GI50 (Homo sapiens, HCC1500, HCC1500 cell line, censored GI50 values): 158 nM | GI50 (Homo sapiens, HCC1500, cell line HCC1500): 158 nM | GI50 (Homo sapiens, HCC1806, HCC1806 cell line, censored GI50 values): 162 nM | GI50 (Homo sapiens, HCC1806, cell line HCC1806): 162 nM | GI50 (Homo sapiens, HCC1937, HCC1937 cell line, censored GI50 values): 617 nM | GI50 (Homo sapiens, HCC1937, cell line HCC1937): 617 nM | GI50 (Homo sapiens, HCC1954, HCC1954 cell line, censored GI50 values): 4900 nM | GI50 (Homo sapiens, HCC1954, cell line HCC1954): 4900 nM | GI50 (Homo sapiens, MCF7, cell line MCF7): 1410 nM | GI50 (Homo sapiens, MDA-MB-361, cell line MDAMB361): 525 nM | GI50 (Homo sapiens, MDA-MB-436, cell line MDAMB436): 1380 nM | GI50 (Homo sapiens, MDA-MB-453, cell line MDAMB453): 661 nM | GI50 (Homo sapiens, MDA-MB-468, cell line MDAMB468): 407 nM | GI50 (Homo sapiens, SK-BR-3, cell line SKBR3): 1020 nM | GI50 (Homo sapiens, SUM52PE, cell line SUM52PE): 138 nM | GI50 (Homo sapiens, SUM149PT, cell line SUM149PT): 91.2 nM | GI50 (Homo sapiens, SUM185PE, cell line SUM185PE): 63.1 nM | GI50 (Homo sapiens, SUM225CWN, cell line SUM225CWN): 1000 nM | GI50 (Homo sapiens, SUM-159-PT, cell line SUM159PT): 288 nM | GI50 (Homo sapiens, T47D, cell line T47D): 5620 nM | GI50 (Homo sapiens, UACC-812, cell line UACC812): 1050 nM | GI50 (Homo sapiens, ZR-75-1, cell line ZR751): 1780 nM | GI50 (Homo sapiens, ZR-75B, cell line ZR75B): 457 nM | GI50 (Homo sapiens, cell line 600MPE): 1700 nM | GI50 (Homo sapiens, cell line HCC2185): 3240 nM | GI50 (Homo sapiens, cell line HCC3153): 7760 nM | GI50 (Homo sapiens, cell line MDAMB134V): 363 nM | GI50 (Homo sapiens, cell line MDAMB175V): 813 nM | GI50 (Homo sapiens, cell line SUM1315MO): 37.2 nM
